How the values were obtained:
[1] = molecular target: T1, small-conductance Ca2+-activated K+ channel, subtype 3 (SK3) (Homo sapiens, UniProt Q9UGI6); test: Whole-cell patch-clamp recording of SK3 current in HEK293 cells stably expressing hSK3; format: cell-based; conditions: baseline current at -20 mV, 300 nM free Ca2+
T1 construct: expressed in transfected cells; host or cells: HEK293 cells stably transfected with pNS3_hSK3
Description: The ionic current through small-conductance Ca^2+-activated K^+ channels (SK channels, subtype 3) is recorded using the whole-cell configuration of the patch-clamp technique.
The small-conductance Ca^2+-activated K^+ channel, subtype 3 (SK3) was cloned from human skeletal muscle and stably expressed in HEK293 cells.
Human SK3 (hSK3) was sub-cloned into the expression vector pNS3n, a customized vector derived from pcDNA3 (InVitrogen) to give the plasmid construct pNS3_hSK3. HEK293 tissue culture cells were grown in DMEM (Dulbecco's Modified Eagle Medium) supplemented with 10% FCS (foetal calf serum) at 37° C. in 5% CO2. […]
Experiments are carried out on one of several patch-clamp set-ups. […] Data are stored directly on the hard-disk and analysed by IGOR software (Wavemetrics, Lake Oswega, Oreg., USA).
The whole-cell configuration of the patch-clamp technique is applied. […] Cell capacitance is electronically compensated and the resistance between the pipette and the cell interior (the series resistance, Rs) is measured and compensated for. […]
The intracellular (pipette) solution has the following composition (in mM): 105 KCl, 45 KOH, 10 EGTA, 1.21 MgCl2, 7.63 CaCl2, and 10 HEPES (pH=7.2 with HCl). The calculated free concentration of Ca^2+ in this solution is 300 nM and that of Mg^2+ is 1 mM. […]
Active compounds are quantified by calculating the change in baseline current at −20 mV. […]

Row | SC100 (Stimulating Concentration required for increasing the baseline current by 100%) [1] [µM] | melting point [°C] | Compound
1 | 0.035 |  | Cc1cc(C)n(-c2nc(NC3CCCCC3)c3ccccc3n2)n1 [Compound A8, Cyclohexyl-[2-(3,5-dimethyl-pyrazol-1-yl)-quinazolin-4-yl]-amine]
2 |  | 262.4 to 265.3 | Cc1cc(C)n(-c2nc(Nc3ccccc3)c3ccccc3n2)n1 [Compound B1, [2-(3,5-Dimethyl-pyrazol-1-yl)-quinazolin-4-yl]-phenyl-amine]

Source: patent US8252806B2, “Potassium channel modulating agents and their medical use” (Neurosearch A/S, priority 2005, dated 2012)
